Assay results: paper PMC7481290, “Halogenation as a tool to tune antimicrobial activity of peptoids” (Scientific Reports, 2020)
Converted amounts (≈) assume the structure as drawn. Non-standard residues stand in square brackets, D forms with d. Residues, ends and D or L forms follow the SMILES beside them. Nspe = C[C@H](NCC(=O)O)c1ccccc1; Nlys = NCCCCNCC(=O)O

Tests used:
E. coli ATCC 25922 = format: cell-based, Escherichia coli; conditions: Table 2; E. coli ATCC 25922
Method in brief: (§1)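 Broth microdilution per CLSI in MHB II, final inoculum 5 × 10^5 CFU/mL, with twofold peptoid dilutions. Incubation was 18 h at 37 °C in ambient air. MIC was taken as the lowest concentration without visible growth, from two experiments on different days in technical triplicate.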

[1] = system: Methicillin-resistant S. aureus USA 300; format: cell-based, Staphylococcus aureus; conditions: Table 2; MRSA USA 300
Method in brief: as §1

S. aureus ATCC 25923 = format: cell-based, Staphylococcus aureus; conditions: Table 2; S. aureus ATCC 25923
Method in brief: as §1

[2] = system: Methicillin-resistant S. epidermidis ATCC 51625; format: cell-based, Staphylococcus epidermidis; conditions: Table 2; MRSE ATCC 51625
Method in brief: as §1

[3] = system: Methicillin-resistant S. epidermidis ET-024; format: cell-based, Staphylococcus epidermidis; conditions: Table 2; MRSE ET-024
Method in brief: as §1

HaCaT cell line = format: cell-based, human; conditions: 1 h exposure, MTS/PMS assay; interval in brackets
Protocol: An immortalized human keratinocytes (HaCaT) cell line (Gift from David G. Naym at Bispebjerg Hospital) were cultured to ∼90% confluence after 21–25 h of growth at 5% CO2 and 37 °C as previously. In brief, the cells were cultured in Dulbecco’s Modified Eagle’s Medium supplemented with 10% (v/v) fetal bovine serum, penicillin (100 IU/mL), and streptomycin (100 μg/mL), purchased from Sigma-Aldrich (St. Louis, MO, United States).
Cell viability assessment was performed on cell monolayers grown to ∼90% confluence in 96-well plates Corning Costar (Sigma-Aldrich, Brøndby, Denmark) by using the MTS/PMS assay as previously described. Briefly, the adhered cells were washed with 37 °C PBS solution (ThermoFisher Scientific, Roskilde) and exposed for 1 h at 37 °C to 100 μL of peptoids dissolved in the medium also used for culturing of the cell line (at concentrations in the range 0–1,000 μg/mL). The precise exposure-time were selected to enable comparison with related peptoid compounds[21],[35]. […] A plate reader (SpectraMax i3X; Molecular devices, San Jose, CA) was used to measure the absorbance at 492 nm. The relative viability was calculated by using 0.2% (w/v) sodium dodecyl sulfate (SDS) as the positive control, while cells exposed to medium without test compound were used as the negative control. […]

[4] = system: P. aeruginosa PA01 (H103); format: cell-based, Pseudomonas aeruginosa; conditions: Table 2; P. aeruginosa PA01 H103
Method in brief: as §1

Q: With C[C@@H](c1ccccc1)N(CC(N)=O)C(=O)CN(C(=O)CN(CCCCN)C(=O)CN(C(=O)CN(C(=O)CN(CCCCN)C(=O)CN(C(=O)CN(C(=O)CN(CCCCN)C(=O)CN(C(=O)CN(C(=O)CNCCCCN)[C@@H](C)c1ccccc1)[C@@H](C)c1ccccc1)[C@@H](C)c1ccccc1)[C@@H](C)c1ccccc1)[C@@H](C)c1ccccc1)[C@@H](C)c1ccccc1)[C@@H](C)c1ccccc1 [Peptoid 1, reference compound] (H-[Nlys][Nspe][Nspe][Nlys][Nspe][Nspe][Nlys][Nspe][Nspe][Nlys][Nspe][Nspe]-NH2) as the molecule, how does the “MIC EC^e” value (E. coli ATCC 25922) read?
A: 8 µg/mL (≈ 4.4 µM)

Q: What about the “MIC MRSA^b” value [1] of the same molecule?
A: 8 µg/mL (≈ 4.4 µM)

Q: And the “MIC SA^a” value (S. aureus ATCC 25923)?
A: 8 µg/mL (≈ 4.4 µM)

Q: And the “MIC MRSE^d” value [2]?
A: 8 µg/mL (≈ 4.4 µM)

Q: What about the “MIC MRSE^c” value [3] of the same molecule?
A: 4 µg/mL (≈ 2.2 µM)

Q: What about the “IC50 towards HaCaT cell line” value (HaCaT cell line) of the same molecule?
A: 35.0 (30.9 to 39.9) μg/mL

Q: And the “MIC PA^f” value [4]?
A: 16 µg/mL (≈ 8.79 µM)
